Values quoted from earlier work in US11744878B2 (priority 2020, dated 2023).
Where no end group is shown, it is not given here.

Tests used:
[1] = tested on: COVID-19; conditions: most critically ill patients with COVID-19; cited from earlier work
[2] = tested on: SARS coronavirus; conditions: cited from earlier work
[3] = tested on: pancreas; conditions: cited from earlier work
[4] = in vivo; cited from earlier work

CC[C@H](C)[C@H](NC(=O)[C@H](CO)NC(=O)[C@H](CC(N)=O)NC(=O)[C@H](CC(C)C)NC(=O)[C@H](Cc1ccc(O)cc1)NC(=O)[C@H](CCCCN)NC(=O)[C@H](CCCCN)NC(=O)[C@@H](NC(=O)[C@H](C)NC(=O)[C@H](CCSC)NC(=O)[C@H](CCC(N)=O)NC(=O)[C@H](CCCCN)NC(=O)[C@H](CCCNC(=N)N)NC(=O)[C@H](CC(C)C)NC(=O)[C@H](CCCNC(=N)N)NC(=O)[C@@H](NC(=O)[C@H](Cc1ccc(O)cc1)NC(=O)[C@H](CC(N)=O)NC(=O)[C@H](CC(=O)O)NC(=O)[C@@H](NC(=O)[C@H](Cc1ccccc1)NC(=O)[C@@H](NC(=O)[C@H](C)NC(=O)[C@H](CC(=O)O)NC(=O)[C@H](CO)NC(=O)[C@@H](N)Cc1c[nH]cn1)C(C)C)[C@@H](C)O)[C@@H](C)O)C(C)C)C(=O)N[C@@H](CC(C)C)C(=O)N[C@@H](CC(N)=O)C(N)=O [RLF-100, aviptadil]
recovery from respiratory failure [1]: rapid recovery from respiratory failure | replication of the SARS coronavirus [2]: blocked replication

secretin (HSDGTFTSELSRLRDSARLQRLLQGLV; not fully specified (C-terminus); ends and bridges not checked; UniProt P63298 33-59, looked up)
pancreatic duct diameter ([3]; in vivo): increases the pancreatic duct diameter | sphincter of Oddi ([3]; in vivo): causes sphincter of Oddi relaxation | volume and bicarbonate content of pancreatic juice ([3]; primary action): increase the volume and bicarbonate content | crossing of the blood-brain barrier [4]: rapidly crosses the blood-brain barrier | distribution in the body [4]: highly and rapidly distributed

synthetic porcine secretin: new synthetic porcine secretin, manufactured by ChiRhoClin, Inc. (HSDGTFTSELSRLRDSARLQRLLQGLV; not fully specified (C-terminus); ends and bridges not checked; UniProt P63298 33-59, looked up)
effectiveness as a pancreatic secretagogue ([3]; compared with secretin extracted from porcine duodenum): equally effective
